In PubChem BioAssay (NCI):
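Method: 48-hour compound exposure of cells in 96-well plates, five concentrations, linear interpolation of endpoints. TGI: concentration producing complete growth inhibition.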

Tests used:
Test in all cases: NCI-60 cell line screen, 48 h
786-0 renal = tested on: 786-0 renal
A498 renal = tested on: A498 renal
A549 NSCLC = tested on: A549 NSCLC
ACHN renal = tested on: ACHN renal
CAKI-1 renal = tested on: CAKI-1 renal
CCRF-CEM leukemia = tested on: CCRF-CEM leukemia
COLO 205 colon = tested on: COLO 205 colon
DLD-1 colon = tested on: DLD-1 colon
DMS 273 small cell lung = tested on: DMS 273 small cell lung
EKVX NSCLC = tested on: EKVX NSCLC
HCC-2998 colon = tested on: HCC-2998 colon
HCT-116 colon = tested on: HCT-116 colon
HCT-15 colon = tested on: HCT-15 colon
HL-60(TB) leukemia = tested on: HL-60(TB) leukemia
HOP-18 NSCLC = tested on: HOP-18 NSCLC
HOP-62 NSCLC = tested on: HOP-62 NSCLC
HT29 colon = tested on: HT29 colon
IGROV1 ovarian = tested on: IGROV1 ovarian
K-562 leukemia = tested on: K-562 leukemia
KM12 colon = tested on: KM12 colon
KM20L2 colon = tested on: KM20L2 colon
LOX IMVI melanoma = tested on: LOX IMVI melanoma
LXFL 529 NSCLC = tested on: LXFL 529 NSCLC
M14 melanoma = tested on: M14 melanoma
M19-MEL melanoma = tested on: M19-MEL melanoma
MALME-3M melanoma = tested on: MALME-3M melanoma
MOLT-4 leukemia = tested on: MOLT-4 leukemia
NCI-H226 lung = tested on: NCI-H226 lung
NCI-H23 lung = tested on: NCI-H23 lung
NCI-H460 lung = tested on: NCI-H460 lung
NCI-H522 lung = tested on: NCI-H522 lung
OVCAR-3 ovarian = tested on: OVCAR-3 ovarian
OVCAR-4 ovarian = tested on: OVCAR-4 ovarian
OVCAR-5 ovarian = tested on: OVCAR-5 ovarian
OVCAR-8 ovarian = tested on: OVCAR-8 ovarian
RPMI-8226 leukemia = tested on: RPMI-8226 leukemia
RXF 393 renal = tested on: RXF 393 renal
SF-295 CNS = tested on: SF-295 CNS
SF-539 CNS = tested on: SF-539 CNS
SK-MEL-2 melanoma = tested on: SK-MEL-2 melanoma
SK-MEL-5 melanoma = tested on: SK-MEL-5 melanoma
SK-OV-3 ovarian = tested on: SK-OV-3 ovarian
SN12C renal = tested on: SN12C renal
SNB-19 CNS = tested on: SNB-19 CNS
SNB-75 CNS = tested on: SNB-75 CNS
SNB-78 CNS = tested on: SNB-78 CNS
SR leukemia = tested on: SR leukemia
SW-620 colon = tested on: SW-620 colon
TK-10 renal = tested on: TK-10 renal
U251 CNS = tested on: U251 CNS
UACC-257 melanoma = tested on: UACC-257 melanoma
UACC-62 melanoma = tested on: UACC-62 melanoma
UO-31 renal = tested on: UO-31 renal
XF 498 CNS = tested on: XF 498 CNS
DMS 114 small cell lung = tested on: DMS 114 small cell lung
HOP-92 NSCLC = tested on: HOP-92 NSCLC
SF-268 CNS = tested on: SF-268 CNS
SK-MEL-28 melanoma = tested on: SK-MEL-28 melanoma

Measured: TGI

CCCCn1c(-c2ccccc2)cs/c1=N\NC(=O)Cn1c(C)nc2ccccc21
57.4 µM: MOLT-4 leukemia
38.2 µM: COLO 205 colon
> 100 µM: 786-0 renal | A498 renal | A549 NSCLC | ACHN renal | CAKI-1 renal | DLD-1 colon | DMS 273 small cell lung | EKVX NSCLC | HCC-2998 colon | HCT-116 colon | HCT-15 colon | HOP-18 NSCLC | HOP-62 NSCLC | HT29 colon | IGROV1 ovarian | K-562 leukemia | KM12 colon | KM20L2 colon | LOX IMVI melanoma | LXFL 529 NSCLC | M14 melanoma | M19-MEL melanoma | MALME-3M melanoma | NCI-H226 lung | NCI-H23 lung | NCI-H460 lung | NCI-H522 lung | OVCAR-3 ovarian | OVCAR-4 ovarian | OVCAR-5 ovarian | OVCAR-8 ovarian | RPMI-8226 leukemia | SF-295 CNS | SF-539 CNS | SK-MEL-2 melanoma | SK-MEL-5 melanoma | SK-OV-3 ovarian | SN12C renal | SNB-19 CNS | SNB-75 CNS | SNB-78 CNS | SW-620 colon | TK-10 renal | U251 CNS | UACC-257 melanoma | UACC-62 melanoma | UO-31 renal | XF 498 CNS
56.2 µM: HL-60(TB) leukemia
99.4 µM: CCRF-CEM leukemia
94.1 µM: RXF 393 renal
50.9 µM: SR leukemia

CCNC1CC(n2cc(C)c(=O)[nH]c2=O)OC1CO (stereo not given)
> 100 µM: 786-0 renal | A498 renal | CAKI-1 renal | CCRF-CEM leukemia | COLO 205 colon | DLD-1 colon | DMS 114 small cell lung | DMS 273 small cell lung | HCC-2998 colon | HCT-116 colon | HL-60(TB) leukemia | HOP-62 NSCLC | HOP-92 NSCLC | IGROV1 ovarian | K-562 leukemia | LXFL 529 NSCLC | M14 melanoma | M19-MEL melanoma | MALME-3M melanoma | MOLT-4 leukemia | NCI-H226 lung | NCI-H23 lung | NCI-H460 lung | NCI-H522 lung | OVCAR-4 ovarian | RPMI-8226 leukemia | SF-268 CNS | SF-539 CNS | SK-MEL-2 melanoma | SK-MEL-28 melanoma | SK-OV-3 ovarian | SN12C renal | SNB-75 CNS | SNB-78 CNS | SR leukemia | UACC-62 melanoma | UO-31 renal | XF 498 CNS

O=C(Cc1nc2ccccc2s1)C(=O)Nc1cccc(C(F)(F)F)c1
> 100 µM: 786-0 renal | A498 renal | A549 NSCLC | ACHN renal | CAKI-1 renal | CCRF-CEM leukemia | COLO 205 colon | DLD-1 colon | DMS 114 small cell lung | DMS 273 small cell lung | EKVX NSCLC | HCC-2998 colon | HCT-116 colon | HCT-15 colon | HL-60(TB) leukemia | HOP-18 NSCLC | HOP-62 NSCLC | HOP-92 NSCLC | HT29 colon | IGROV1 ovarian | KM12 colon | KM20L2 colon | LXFL 529 NSCLC | M14 melanoma | M19-MEL melanoma | MALME-3M melanoma | MOLT-4 leukemia | NCI-H226 lung | NCI-H23 lung | NCI-H460 lung | NCI-H522 lung | OVCAR-3 ovarian | OVCAR-4 ovarian | OVCAR-8 ovarian | RXF 393 renal | SF-268 CNS | SF-295 CNS | SF-539 CNS | SK-MEL-2 melanoma | SK-MEL-28 melanoma | SK-MEL-5 melanoma | SK-OV-3 ovarian | SN12C renal | SNB-19 CNS | SNB-75 CNS | SNB-78 CNS | SR leukemia | SW-620 colon | TK-10 renal | U251 CNS | UACC-257 melanoma | UACC-62 melanoma | UO-31 renal
